# Laboratory results published in patent US10238738B2, “Methods of modulating immune system responses” (priority 2014, dated 2019).
# Columns and labels:
# NF-κB = NF-κB luciferase reporter assay in 293T cells; assay type: cell-based, human
# Experimental: 293T were maintained in DMEM supplemented with 10% FBS, 1% glutamax, and 1% penicillin streptomycin. Jurkat 1G5 cells contain a stably-integrated LTR-luciferase reporter gene (Aguilar-Cordova et al., 1994), and were maintained in RPMI supplemented with 10% FBS and 1% glutamax. THP-1 cells were maintained in RPMI supplemented with 10% FBS and 1% glutamax and differentiated to macrophages with 50 ng/ml PMA for 48 hr, followed by a 48 hr rest period prior to stimulation. To measure LTR-driven luciferase, 1G5 cells were lysed and luminescence determined using the Luciferase Assay kit (Promega) according to manufacturer's instructions. Results are expressed as fold change compared to untreated. 293T cells were transfected in 96 well plates with 90 ng ELAM firefly luciferase reporter plasmid (Chow et al., 1999) and 10 ng pRL-TK Renilla plasmid using TransiT LTI (Mirus). 18 hours later cells were treated for 6 hours and luciferase activity determined using the Dual-Glo Luciferase Assay System (Promega). Results are expressed as fold increase relative to transfected, mock treated cells following normalization to Renilla luciferase. Digitonin permeabilization assays were done as described previously (Girardin et al., 2003) with the following modifications: 1G5 cells were stimulated with purified HBP supernatants, or 10 μg/ml flagellin (Invivogen) for 20 minutes at 4° C. in the absence or presence of 2 μg/ml digitonin (Sigma). […]
# 293T were maintained in DMEM supplemented with 10% FBS, 1% glutamax, and 1% penicillin streptomycin. […] To measure LTR-driven luciferase, 1G5 cells were lysed and luminescence determined using the Luciferase Assay kit (Promega) according to manufacturers instructions. Results are expressed as fold change compared to untreated. […] 18 hours later cells were treated for 6 hours and luciferase activity determined using the Dual-Glo Luciferase Assay System (Promega). Results are expressed as fold increase relative to transfected, mock treated cells following normalization to Renilla luciferase.
# THP-1 macrophages = assay: qRT-PCR analysis of THP-1 macrophages treated with synthetic HBP and TLR ligands; assay type: cell-based, human; conditions: 4 hr, with PAM3CSK4 or flagellin; FIG. 3c
# Experimental: FIG. 3(c), qRT-PCR analysis of THP-1 macrophages treated with synthetic HBP (sHBP), PAM3CSK4 (PAM3), or flagellin (FLAG) for 4 hr, expressed as fold increase relative to untreated after normalization to GAPDH. Data represent ≥3 independent experiments performed in duplicate. All error bars±s.e.m. *P<0.05, **P<0.01 by ANOVA.
# THP-1 cells were maintained in RPMI supplemented with 10% FBS and 1% glutamax and differentiated to macrophages with 50 ng/ml PMA for 48 hr, followed by a 48 hr rest period prior to stimulation. […] Results are expressed as fold change compared to untreated.
# RNA was isolated using an RNeasy kit (Qiagen) per manufacturers' protocol. cDNA was synthesized using the iScript cDNA synthesis kit (Bio-Rad) and treated with TURBO DNase (Life Technologies). cDNA was amplified using SsoAdvanced SYBR Green (Bio-Rad) using a C1000 thermal cycler (Bio-Rad).
# Relative expression was calculated using the 2^−ΔΔCT method following normalization of target gene abundance to GAPDH.
# TIFA-TRAF6 interaction = biological target: T1, TIFA-TRAF6 interaction (Homo sapiens, UniProt Q96CG3); assay: FLAG-TIFA immunoprecipitation and immunoblot for TRAF6; assay type: cell-based
# T1 construct: expressed in transfected cells; endogenous TIFA knocked down with a 3' UTR shRNA; TRAF6 endogenous
# T1 sequence (Q96CG3 1-184): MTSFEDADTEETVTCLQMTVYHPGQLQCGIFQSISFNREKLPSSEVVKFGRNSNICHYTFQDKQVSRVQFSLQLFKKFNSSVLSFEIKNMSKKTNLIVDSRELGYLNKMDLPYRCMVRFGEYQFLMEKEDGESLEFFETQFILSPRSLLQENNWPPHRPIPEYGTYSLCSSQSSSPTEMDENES
# Experimental: FLAG-TIFA was immunoprecipitated from Jurkat cells using FLAG M2 agarose beads (Sigma) as described previously (Chen and Gingras, 2007). Briefly, cells were lysed in 50 mM Hepes-KOH pH 8.0, 100 mM KCl, 2 mM EDTA, 0.1% NP40, 10% glycerol. Soluble cell lysates were pre-cleared for 2 hr with mouse IgG agarose (Sigma) and immunoprecipitated overnight at 4° C. Proteins eluted using 0.5 M NH4OH pH 11 (for mass-spectrometry), or 3× FLAG-peptide (Sigma) (immunoblot analysis). TRAF6 was immunoprecipitated from Jurkat cell lysates using rabbit anti-TRAF6 (sc-72201; Santa cruz) conjugated to protein A/G PLUS-agarose (Santa cruz) and eluted in sample buffer. Whole cell lysates or immunoprecipitation eluates were immunoblotted with the following antibodies: M2 anti-FLAG (Sigma), rabbit anti-FLAG (Sigma), mouse anti-TRAF6 (sc-8409; Santa Cruz), rabbit anti-TRAF2 (sc-876), mouse anti-ubiquitin (sc-8017; Santa cruz), mouse anti-beta actin (Sigma). For phosphopeptide analysis, FLAG-TIFA was excised from the gel, subject to in-gel trypic digestion, followed by treatment with cyanogen bromide (Sigma) in 70% TFA and analyzed by LC/MS/MS. Data were analyzed by Scaffold PTM (Proteome).
# TIFA [1] = biological target: T2, TIFA (Homo sapiens, UniProt Q96CG3); assay: Native PAGE analysis of FLAG-TIFA oligomerization; assay type: cell-based; conditions: clear native-PAGE or blue native PAGE; Jurkat cells; FIG. 20
# T2 construct: expressed in transfected cells; endogenous TIFA knocked down with a 3' UTR shRNA
# T2 sequence (Q96CG3 1-184): T1 sequence (Q96CG3 1-184)
# Source text: For BlueNative PAGE, cells were lysed in 1% NP-40, 0.1% Triton-X100, 0.1% SDS and soluble lysate separated by gradient PAGE (8-16%) using ExpressPlus System™ (GenScript) as described previously (Kofoed and Vance, 2013). For ClearNative PAGE, cells were lysed in 1% NP-40, 0.1% Trition-X100, 0.1% SDS and soluble lysate separated on 12.5% tris-glycine polyacrylamide gels.
# TIFA [2] = biological target: T2, TIFA; assay: Confocal microscopy of FLAG-TIFA with TRAF6 or Lamp2; assay type: cell-based
# Experimental: For visualization of FLAG-TIFA and TRAF6, cells were stained overnight at 4° C. with Alexa Fluor-488 conjugated rabbit anti-FLAG (Cell Signaling) and mouse anti-TRAF6 (sc-8409; Santa Cruz), followed by 1 hour with Alexa Fluor-594 conjugated anti mouse (Life Technologies). For visualization of FLAG-TIFA and Lamp2, cells were stained overnight at 4° C. with mouse anti-FLAG (M2; Sigma) and rabbit anti-Lamp2 (ab37024; Abcam), followed by 1 hour with Alexa Fluor-488 conjugated anti-mouse (Life Technologies) and Alexa Fluor-594 conjugated anti-rabbit (Life Technologies). Slides were visualized using an LSM510 (Carl Zeiss) confocal microscope. For analysis, images were processed using ImageJ software
smiles,measurement,setting,value
"O=P(O)(O)OC[C@@H](O)[C@H]1OC(OP(=O)(O)O)[C@@H](O)[C@@H](O)[C@@H]1O (stereo partly drawn) [HBP, D-glycerol-D-manno-heptose-1,7-bisphosphate]",NF-κB activation after incubation of the product with phosphatase GmhB,NF-κB; FIG. 1e,decreased NF-κB activation
same,NF-κB activation,"NF-κB; product of in vitro reaction of S7P with GmhA and HldA, FIG. 1d",potently stimulated NF-κB
same,Activation of THP-1 macrophages in combination with TLR ligands,THP-1 macrophages,synergistically activated THP-1 macrophages
same,Ubiquitin chains in the TIFA-TRAF6 complex,"TIFA-TRAF6 interaction; Jurkat cells, TIFA immunoprecipitation, FIG. 17a",Ubiquitin chains could be detected
same,TIFA-TRAF6 interaction,"TIFA-TRAF6 interaction; cells expressing FLAG-TIFA, endogenous TIFA knocked down, FIG. 16a",completely dependent on HBP
same,Time at which TIFA-TRAF6 interaction was apparent,"TIFA-TRAF6 interaction; post treatment, FIG. 16a",30 min
same,TIFA oligomerization,TIFA [1],triggered TIFA oligomerization
same,TIFA co-localization with TRAF6,"TIFA [2]; 293T cells, 3 hr, FIG. 16b",co-localized with TRAF6 in distinct foci
same,Formation of TIFA aggregates co-localized with Lamp2,"TIFA [2]; 293 cells, 4 hr, FIG. 21",induced the formation of large TIFA aggregates
